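Cultured in 96-well plates, cells were exposed to test compound for 48 hours across five concentrations. TGI: total growth inhibition.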 Where a SMILES comes first, the peptide text is derived from it. The star is where a group is joined. OSu = O=C1CCC(=O)N1O* A value given as a limit tells only on which side of the number the result lay.

We go through twelve compounds from PubChem BioAssay (NCI).

Among the test systems are UACC-62 melanoma; COLO 205 colon; A549 NSCLC; PC-3 prostate; UO-31 renal; CAKI-1 renal; A498 renal; SK-MEL-28 melanoma; SK-OV-3 ovarian; MDA-MB-231 breast; RPMI-8226 leukemia.
Common to all, as to experiment: inhibition of tumour cell growth, NCI panel, 48 h

In the case of `C=CC[C@]1(C2=NC(C)(C)CO2)c2ccccc2-c2ccccc2[C@H]1C(C)=O`, the TGI was 19.2 µM in the test with UACC-62 melanoma; 15 µM in the test with COLO 205 colon; 36.8 µM in the test on A549 NSCLC; 27.7 µM in the test on PC-3 prostate; 28 µM with UO-31 renal; greater than 55 µM with CAKI-1 renal. For the same compound, the TGI with A498 renal is 21.1 µM; with SK-MEL-28 melanoma, greater than 54.5 µM; in the test on SK-OV-3 ovarian, greater than 54.9 µM; with MDA-MB-231 breast, 30 µM; in the test on RPMI-8226 leukemia it was 33.5 µM.

Regarding `[N-]=[N+]=Nc1ccc2c(c1)Sc1ccccc1N2CCCCN1CCN(C(=O)CCNC(=O)Cc2ccc(C(=O)c3ccccc3)cc2)CC1`, the TGI in the test with UACC-62 melanoma is 19.6 µM; in the test with COLO 205 colon, 8.92 µM; in the test on A549 NSCLC, greater than 100 µM; in the test on PC-3 prostate it was greater than 21.3 µM; in the test on UO-31 renal, greater than 100 µM; with CAKI-1 renal, greater than 100 µM. Also, the TGI in the test on A498 renal was greater than 35.9 µM; with SK-MEL-28 melanoma, 9.89 µM; in the test on SK-OV-3 ovarian it was greater than 100 µM; in the test with MDA-MB-231 breast, 16.9 µM; in the test with RPMI-8226 leukemia, 4.87 µM.

On to `CN(C)c1ccc(/C=C(\NC(=O)c2ccccc2)C(=O)NC(Cc2c[nH]c3ccccc23)C(=O)O)cc1` (stereo unspecified), for which the TGI in the test on UACC-62 melanoma, in the test on COLO 205 colon, in the test with A549 NSCLC, in the test on PC-3 prostate, with UO-31 renal and in the test on CAKI-1 renal was greater than 100 µM in each case. The TGI in the test on A498 renal, with SK-MEL-28 melanoma, in the test on SK-OV-3 ovarian, in the test with MDA-MB-231 breast and with RPMI-8226 leukemia was greater than 100 µM throughout.

Take `O=C1NC(=Nc2ccccc2)C(=Nc2ccccc2)N1c1ccccc1`: the TGI with UACC-62 melanoma came out at 25.3 µM; in the test on COLO 205 colon, 28 µM; in the test with A549 NSCLC, 31 µM; with PC-3 prostate it was 27.6 µM; in the test with UO-31 renal, 30.1 µM; with CAKI-1 renal, 31.7 µM. Besides, the TGI amounted to 31 µM in the test with A498 renal; 28.4 µM in the test with SK-MEL-28 melanoma; 34.4 µM in the test with SK-OV-3 ovarian; 35.6 µM with MDA-MB-231 breast; 76.8 µM with RPMI-8226 leukemia.

For `NCCCCC(NC(=O)C(N)Cc1ccc(O)cc1)C(=O)NC(Cc1ccc(O)cc1)C(=O)NC(CCCCN)C(=O)ON1C(=O)CCC1=O` (stereo unspecified) (H-YKYK-OSu; configuration not given here), the TGI with UACC-62 melanoma, in the test with COLO 205 colon, in the test with A549 NSCLC, in the test on PC-3 prostate, in the test on UO-31 renal and with A498 renal was greater than 100 µM throughout. In addition, the TGI with SK-MEL-28 melanoma, in the test with MDA-MB-231 breast and in the test with RPMI-8226 leukemia was greater than 100 µM each time.

On to `NC(N)=N/N=C/c1c(-c2cc([N+](=O)[O-])c(Cl)cc2Cl)nc2n1CCS2`, for which the TGI was 97.1 µM with UACC-62 melanoma; greater than 100 µM with A549 NSCLC; greater than 100 µM with PC-3 prostate; 38.2 µM in the test on UO-31 renal; greater than 100 µM in the test on CAKI-1 renal; greater than 100 µM with A498 renal. Further, the TGI in the test with SK-MEL-28 melanoma was 22.2 µM; with MDA-MB-231 breast it was greater than 100 µM; in the test on RPMI-8226 leukemia it was greater than 100 µM.

As to `C=CCCC(=O)C(=[N+]=[N-])C(=O)CCC(=O)c1ccccc1`, the TGI in the test on UACC-62 melanoma, in the test with A549 NSCLC, in the test on PC-3 prostate, in the test on UO-31 renal, with A498 renal and in the test on SK-MEL-28 melanoma was greater than 10 µM throughout. The TGI with SK-OV-3 ovarian, with MDA-MB-231 breast and in the test with RPMI-8226 leukemia was greater than 10 µM in each case.

As to `O=c1[nH]nc(-c2ccc(F)cc2)cc1-c1ccccc1`, the TGI in the test on UACC-62 melanoma, with COLO 205 colon, in the test on A549 NSCLC, with PC-3 prostate, in the test on CAKI-1 renal and in the test with A498 renal was greater than 100 µM in each case. The TGI in the test with SK-MEL-28 melanoma, in the test with SK-OV-3 ovarian, in the test on MDA-MB-231 breast and in the test with RPMI-8226 leukemia was greater than 100 µM throughout.

Take `Cc1cn(C2OC(CO)C(O)C2F)c(=O)[nH]c1=O` (stereo unspecified): the TGI with UACC-62 melanoma, with COLO 205 colon, in the test with A549 NSCLC, in the test with PC-3 prostate, with UO-31 renal and with CAKI-1 renal was greater than 100 µM throughout. For the same compound, the TGI in the test on A498 renal, in the test with SK-MEL-28 melanoma, in the test on SK-OV-3 ovarian and in the test on MDA-MB-231 breast was greater than 100 µM in each case.

For the compound `CC(=O)O[C@H]1C(=O)[C@@]2(C)[C@H]([C@H](OC(=O)c3ccccc3)[C@]3(O)C[C@H](OC(=O)[C@H](O)[C@@H](NC(=O)c4ccc(N(C)C)cc4)c4ccccc4)C(C)=C1C3(C)C)[C@]1(OC(C)=O)CO[C@@H]1C[C@@H]2O`, the TGI in the test with UACC-62 melanoma, in the test on A549 NSCLC, with PC-3 prostate, with UO-31 renal, in the test on CAKI-1 renal and with A498 renal was greater than 50 µM in each case. Further, the TGI with SK-MEL-28 melanoma was greater than 50 µM; in the test on SK-OV-3 ovarian, greater than 50 µM; with MDA-MB-231 breast, greater than 50 µM; with RPMI-8226 leukemia it was 0.00795 µM.

For `Nc1c2cc3ccc2nc2ccc(cc12)OCCOCCOCCOCCOCCOCCO3`, the TGI in the test with UACC-62 melanoma, with COLO 205 colon, in the test on A549 NSCLC, in the test on PC-3 prostate, in the test with CAKI-1 renal and with A498 renal was greater than 10 µM in each case. For the same compound, the TGI in the test with SK-MEL-28 melanoma, with SK-OV-3 ovarian, in the test with MDA-MB-231 breast and in the test with RPMI-8226 leukemia was greater than 10 µM throughout.

Regarding `CC(=O)NC1(C)C(C)C2CC1C(C)C2(C)C` (stereo unspecified), the TGI with UACC-62 melanoma, with COLO 205 colon, in the test with A549 NSCLC, with PC-3 prostate, with UO-31 renal and in the test with CAKI-1 renal was greater than 100 µM each time. For the same compound, the TGI in the test on A498 renal, with SK-MEL-28 melanoma, in the test with SK-OV-3 ovarian and with MDA-MB-231 breast was greater than 100 µM each time.
